Assay: In vitro liver microsomal stability assay
Format: in vitro ADME
Settings: 0.5 mg per mL liver microsome protein, NADPH-generating system, 5 microgram per mL test compound, 37° C., 0-30 minutes, LC/MS/MS
Procedure: Liver microsomal stability assays were conducted at 0.5 mg per mL liver microsome protein with an NADPH-generating system in 2% sodium bicarbonate (2.2 mM NADPH, 25.6 mM glucose 6-phosphate, 6 units per mL glucose 6-phosphate dehydrogenase and 3.3 mM magnesium chloride). Test compounds were prepared as solutions in 20% acetonitrile-water and were added to the assay mixture (final assay concentration 5 microgram per mL) and incubated at 37° C. Final concentration of acetonitrile in the assay should be <1%. Aliquots (50 μL) were taken out at times 0, 7.5, 15, 22.5, and 30 minutes, and diluted with ice cold acetonitrile (200 μL) to stop the reactions. Samples were centrifuged at 12,000 RPM for 10 minutes to precipitate proteins. Supernatants were transferred to microcentrifuge tubes and stored for LC/MS/MS analysis of the degradation half-life of the test compounds.

| Compound | degradation half-life as compared to the non-isotopically enriched drug |
| --- | --- |
| [2H][C@@H](c1cccc(O)c1)[C@]([2H])(N)C(=O)O [Example 2, d3-2-Amino-3-(3-hydroxy-phenyl)-propionic acid] | decrease in degradation half-life |
| [2H]C([2H])(c1cccc(O)c1)[C@]([2H])(N)C(=O)O [Example 3, d3-2-Amino-3-(3-hydroxy-phenyl)-propionic acid] | decrease in degradation half-life |
